Results published in patent US20240067639A1, “SMALL MOLECULES THAT TARGET THE RNA THAT CAUSES ALS” (EXPANSION THERAPEUTICS, INC., priority 2020, published 2024).

Each compound was assayed on RAN translation of (G4C2)66-No ATG-GFP in HEK293T cells (assay: Cell-based assay of RAN translation inhibition (GFP/mCherry reporter)). Conditions: Homo sapiens, HEK-293T, 24 h, Table D; HEK293T, 24 h treatment; read-out: RANT IC25.

| Compound | IC25 [µM] |
| --- | --- |
| Cc1c2ccncc2cc2c3cc(OCCN4CCCC4)ccc3n(C)c12 [Compound 7, 5,6-dimethyl-9-(2-(pyrrolidin-1-yl)ethoxy)-6H-pyrido[4,3-b]carbazole] | > 5 |
| Cc1c2ccncc2cc2c3cc(C(=O)N4CCNCC4)ccc3n(C)c12 [Example 72, (5,6-dimethyl-6H-pyrido[4,3-b]carbazol-9-yl)(piperazin-1-yl)methanone] | > 5 |
| Cc1c2ccncc2cc2c3cc(C(=O)NCCN)ccc3n(C)c12 [Example 74, N-(2-aminoethyl)-5,6-dimethyl-6H-pyrido[4,3-b]carbazole-9-carboxamide] | > 5 |
| COCCNC(=O)c1ccc2c(c1)c1cc3cnccc3c(C)c1n2C [Example 79, N-(2-methoxyethyl)-5,6-dimethyl-6H-pyrido[4,3-b]carbazole-9-carboxamide] | 1.1 |

Same assay, conditions: Homo sapiens, HEK-293T, 24 h, read-out: RANT IC25

| Compound | IC25 [µM] |
| --- | --- |
| Cc1c2ccncc2cc2c3cc(OCCN4CCC(O)CC4)ccc3n(C)c12 [Compound 228, 1-(2-((5,6-dimethyl-6H-pyrido[4,3-b]carbazol-9-yl)oxy)ethyl)piperidin-4-ol] | 1.3 |

Same assay, conditions: Homo sapiens, HEK-293T, read-out: RANT IC50

| Compound | IC50 [µM] |
| --- | --- |
| Cc1c2ccncc2cc2c3cc(Oc4ccccn4)ccc3n(C)c12 [Compound 305, 5,6-dimethyl-9-(pyridin-2-yloxy)-6H-pyrido[4,3-b]carbazole] | 18 |

Same assay, conditions: Homo sapiens, HEK-293T; Table E; inhibition of RAN translation, HEK293T; read-out: IC50

| Compound | IC50 [µM] |
| --- | --- |
| CCOC(=O)c1nccc2c(C)c3[nH]c4ccc(OC)cc4c3cc12 [Compound 202, Ethyl-9-methoxy-5-methyl-6H-pyrido[4,3-b]carbazole-1-carboxylate] | 12 |
| CCOC(=O)C1=NCCc2c1cc1c([nH]c3ccc(OC)cc31)c2C [Compound 203] | > 12.5 |
| CCOC(=O)c1nccc2c(C)c3c(cc12)c1cc(OC)ccc1n3C [Compound 204, Ethyl-9-methoxy-5,6-dimethyl-6H-pyrido[4,3-b]carbazole-1-carboxylate] | 12.5 |
| COCCNC(=O)c1nccc2c(C)c3[nH]c4ccc(OC)cc4c3cc12 [Compound 205] | 12.5 |
| CCCNC(=O)c1nccc2c(C)c3[nH]c4ccc(OC)cc4c3cc12 [Compound 206] | > 12.5 |
| COc1ccc2[nH]c3c(C)c4ccnc(C(=O)NCCO)c4cc3c2c1 [Compound 207] | 6 |
| COc1ccc2[nH]c3c(C)c4ccnc(C(=O)NCCN)c4cc3c2c1 [Compound 208] | 2.2 |
| COc1ccc2[nH]c3c(C)c4ccnc(C(=O)NCCN(C)C)c4cc3c2c1 [Compound 209] | 3.1 |
| COc1ccc2[nH]c3c(C)c4ccnc(C(=O)NCCCN(C)C)c4cc3c2c1 [Compound 210] | 10.3 |
| COc1ccc2c(c1)c1cc3c(C(=O)NCCN(C)C)nccc3c(C)c1n2C [Compound 211] | 3.1 |
| COc1ccc2c(c1)c1cc3c(C(=O)N[C@H](C)CN(C)C)nccc3c(C)c1n2C [Compound 212, (R)—N-(1-(dimethylamino)propan-2-yl)-9-methoxy-5,6-dimethyl-6H-pyrido[4,3-b]carbazole-1-carboxamide] | 3.1 |

Same assay, conditions: Homo sapiens, HEK-293T; Table G; HEK293T; read-out: RANT IC50

| Compound | IC50 [µM] |
| --- | --- |
| Cc1c2ccncc2cc2c3cc(C(=O)NCCOC(C)(C)C)ccc3n(C)c12 [Compound 301, N-(2-(tert-butoxy)ethyl)-5,6-dimethyl-6H-pyrido[4,3-b]carbazole-9-carboxamide] | 13 |

Each compound was assayed against biotinylated r(G4C2)8 RNA and hnRNP H1-His6 (assay: TR-FRET hnRNP H binding assay). Conditions: Table D.
Method: TR-FRET hnRNP H Binding Assay. The TR-FRET assays were performed as previously described (Disney et al., 2012) except the final concentrations of biotinylated r(G4C2)8 (SEQ ID NO: 2) RNA and hnRNP H1-His6 were 80 nM and 75 nM, respectively. The RNA was folded by heating to 95° C. for 5 min in 1× Folding Buffer followed by slowly cooling to room temperature. The buffer was adjusted to 1×TR-FRET Assay Buffer followed by addition of compound. The mixture was incubated for 15 min at room temperature and then hnRNP H1-His6 was added. After an additional 15 min incubation, streptavidin-XL665 (HTRF, Cisbio Bioassays) and anti-His6-Tb (HTRF, Cisbio Bioassays) were added to a final concentration of 40 nM and 0.44 ng/μL, respectively. After incubating for 1 h, TR-FRET was measured as previously described. The IC50s were either calculated by fitting the equation (1) in Graphpad Prism.

| Ki [µM] | Compound |
| --- | --- |
| > 200 | Cc1c2ccncc2cc2c3cc(O)ccc3n(C)c12 [Compound 2, 5,6-dimethyl-6H-pyrido[4,3-b]carbazol-9-ol] |
| > 200 | Cc1c2ccncc2cc2c3cc(OCC(=O)O)ccc3n(C)c12 [Compound 4b, 2-((5,6-dimethyl-6H-pyrido[4,3-b]carbazol-9-yl)oxy)acetic acid] |
| > 200 | Cc1c2ccncc2cc2c3cc(OCC#N)ccc3n(C)c12 [Compound 13, 2-((5,6-dimethyl-6H-pyrido[4,3-b]carbazol-9-yl)oxy)acetonitrile] |
| > 200 | COc1ccc2c(c1)c1cc3cnccc3c(C)c1n2Cc1cnn(C)c1 [Compound 14, 9-methoxy-5-methyl-6-((1-methyl-1H-pyrazol-4-yl)methyl)-6H-pyrido[4,3-b]carbazol] |
